From ChEMBL document CHEMBL3885861, “Open TG-GATES”

Species: Rattus norvegicus
Test: Open TG-GATES - Regimen: Daily Repeat
Type: toxicity, organism-based, Sprague-Dawley
Set-up: regimen Daily Repeat, gender Male, age 6 weeks
Settings: in vivo, po, route gavage; for APTT / Bas / Eos / Fbg / Hb / Ht / Lym / MCH / MCHC / MCV / Mono / Neu / PT / Plat / RBC / Ret / WBC: tissue Blood; for KIDNEY_L / KIDNEY_R / KIDNEY_TOTAL: tissue Kidney; for LIVER: tissue Liver; for A/G / ALP / ALT / AST / BUN / CRE / Ca / Cl / DBIL / GLC / IP / K / LDH / Na / PL / RALB / TBIL / TC / TG / TP / gamma-GTP: tissue Plasma
[1] = 100 mg/kg, 72 h, dose level Middle, time 3 day
[2] = 100 mg/kg, […], dose level Middle, time 7 day
[3] = 100 mg/kg, […], dose level Middle, time 14 day
[4] = 100 mg/kg, […], dose level Middle, time 28 day
[5] = 300 mg/kg, 72 h, dose level High, time 3 day
[6] = 300 mg/kg, […], dose level High, time 7 day
[7] = 300 mg/kg, […], dose level High, time 14 day
[8] = 300 mg/kg, […], dose level High, time 28 day

## CC[C@H]1[C@@H]2C[C@H]3[C@@H]4N(C)c5ccccc5[C@]45C[C@@H]([C@@H]2[C@H]5O)N3[C@@H]1O [AJMALINE]
[1]
  TERMINAL_BW: 207.1 g
  APTT: 16.3 s
  Bas: 0%
  Eos: 1%
  Fbg: 202.6 mg/dL
  Hb: 12.8 g/dL
  Ht: 39.2%
  Lym: 79%
  MCH: 21.3 pg
  MCHC: 32.8%
  MCV: 65.1 fL
  Mono: 6%
  Neu: 13.6%
  PT: 11.8 s
  Plat: 114.8 x10_4/uL
  RBC: 601.8 x10_4/ul
  Ret: 7.8%
  WBC: 101.3 x10_2/uL
  KIDNEY_L: 1 g
  KIDNEY_R: 0.9 g
  KIDNEY_TOTAL: 1.9 g
  LIVER: 9.7 g
  A/G: 1.9
  ALP: 888.2 IU/L
  ALT: 39.2 IU/L
  AST: 63 IU/L
  BUN: 16.2 mg/dL
  CRE: 0.5 mg/dL
  Ca: 10.6 mg/dL
  Cl: 102.2 meq/L
  DBIL: 0.04 mg/dL
  GLC: 201 mg/dL
  IP: 7.9 mg/dL
  K: 4.3 meq/L
  LDH: 98.6 IU/L
  Na: 139.2 meq/L
  PL: 138 mg/dL
  RALB: 3.5 g/dL
  TBIL: 0.3 mg/dL
  TC: 71.8 mg/dL
  TG: 81 mg/dL
  TP: 5.3 g/dL
  gamma-GTP: 1 IU/L
[2]
  TERMINAL_BW: 245.4 g
  APTT: 16.6 s
  Bas: 0%
  Eos: 0.8%
  Fbg: 231.4 mg/dL
  Hb: 13.3 g/dL
  Ht: 40.4%
  Lym: 78.8%
  MCH: 21.1 pg
  MCHC: 32.8%
  MCV: 64.4 fL
  Mono: 7.6%
  Neu: 13%
  PT: 11.3 s
  Plat: 128.6 x10_4/uL
  RBC: 628 x10_4/ul
  Ret: 6.9%
  WBC: 119.7 x10_2/uL
  KIDNEY_L: 1 g
  KIDNEY_R: 1.1 g
  KIDNEY_TOTAL: 2.1 g
  LIVER: 12.2 g
  A/G: 2
  ALP: 770 IU/L
  ALT: 32.8 IU/L
  AST: 61.4 IU/L
  BUN: 18 mg/dL
  CRE: 0.5 mg/dL
  Ca: 11.6 mg/dL
  Cl: 103.8 meq/L
  DBIL: 0.012 mg/dL
  GLC: 219.2 mg/dL
  IP: 8.7 mg/dL
  K: 4.7 meq/L
  LDH: 106.8 IU/L
  Na: 142.8 meq/L
  PL: 154.4 mg/dL
  RALB: 3.8 g/dL
  TBIL: 0.3 mg/dL
  TC: 80 mg/dL
  TG: 94.6 mg/dL
  TP: 5.7 g/dL
  gamma-GTP: 1.4 IU/L
[3]
  TERMINAL_BW: 299.4 g
  APTT: 16.9 s
  Bas: 0%
  Eos: 0.8%
  Fbg: 231.4 mg/dL
  Hb: 14.1 g/dL
  Ht: 42.6%
  Lym: 80.6%
  MCH: 20.4 pg
  MCHC: 33.1%
  MCV: 61.7 fL
  Mono: 5.6%
  Neu: 13.4%
  PT: 11.2 s
  Plat: 140 x10_4/uL
  RBC: 690 x10_4/ul
  Ret: 4.7%
  WBC: 140 x10_2/uL
  KIDNEY_L: 1.2 g
  KIDNEY_R: 1.2 g
  KIDNEY_TOTAL: 2.3 g
  LIVER: 13.4 g
  A/G: 1.9
  ALP: 802.8 IU/L
  ALT: 31.8 IU/L
  AST: 65.6 IU/L
  BUN: 19.4 mg/dL
  CRE: 0.6 mg/dL
  Ca: 11 mg/dL
  Cl: 104 meq/L
  DBIL: 0.012 mg/dL
  GLC: 207 mg/dL
  IP: 7.6 mg/dL
  K: 4.7 meq/L
  LDH: 116.4 IU/L
  Na: 140.6 meq/L
  PL: 153.2 mg/dL
  RALB: 3.7 g/dL
  TBIL: 0.4 mg/dL
  TC: 77 mg/dL
  TG: 109.6 mg/dL
  TP: 5.7 g/dL
  gamma-GTP: 1.2 IU/L
[4]
  TERMINAL_BW: 363.5 g
  APTT: 16.5 s
  Bas: 0%
  Eos: 1%
  Fbg: 218.6 mg/dL
  Hb: 15.3 g/dL
  Ht: 45.6%
  Lym: 83%
  MCH: 19.2 pg
  MCHC: 33.4%
  MCV: 57.5 fL
  Mono: 4.8%
  Neu: 11.2%
  PT: 11.5 s
  Plat: 123.8 x10_4/uL
  RBC: 795 x10_4/ul
  Ret: 2.1%
  WBC: 123.3 x10_2/uL
  KIDNEY_L: 1.3 g
  KIDNEY_R: 1.3 g
  KIDNEY_TOTAL: 2.6 g
  LIVER: 14.6 g
  A/G: 1.8
  ALP: 699.2 IU/L
  ALT: 33.4 IU/L
  AST: 59.8 IU/L
  BUN: 17.8 mg/dL
  CRE: 0.6 mg/dL
  Ca: 10.2 mg/dL
  Cl: 104.4 meq/L
  DBIL: 0.036 mg/dL
  GLC: 189.8 mg/dL
  IP: 6.6 mg/dL
  K: 4.5 meq/L
  LDH: 87.6 IU/L
  Na: 141.2 meq/L
  PL: 131.6 mg/dL
  RALB: 3.9 g/dL
  TBIL: 0.3 mg/dL
  TC: 60.6 mg/dL
  TG: 108.4 mg/dL
  TP: 6 g/dL
  gamma-GTP: 1.6 IU/L
[5]
  TERMINAL_BW: 209.6 g
  APTT: 16.2 s
  Bas: 0%
  Eos: 1%
  Fbg: 214 mg/dL
  Hb: 12.9 g/dL
  Ht: 39.7%
  Lym: 82.8%
  MCH: 20.9 pg
  MCHC: 32.4%
  MCV: 64.4 fL
  Mono: 7.2%
  Neu: 9.6%
  PT: 11.6 s
  Plat: 121.1 x10_4/uL
  RBC: 616.8 x10_4/ul
  Ret: 7.8%
  WBC: 133 x10_2/uL
  KIDNEY_L: 0.9 g
  KIDNEY_R: 0.9 g
  KIDNEY_TOTAL: 1.9 g
  LIVER: 10.3 g
  A/G: 2
  ALP: 989.6 IU/L
  ALT: 44.2 IU/L
  AST: 68.2 IU/L
  BUN: 17 mg/dL
  CRE: 0.5 mg/dL
  Ca: 11.5 mg/dL
  Cl: 100.4 meq/L
  DBIL: 0.034 mg/dL
  GLC: 200 mg/dL
  IP: 8.3 mg/dL
  K: 4.4 meq/L
  LDH: 123.2 IU/L
  Na: 138.8 meq/L
  PL: 150 mg/dL
  RALB: 3.6 g/dL
  TBIL: 0.3 mg/dL
  TC: 87.6 mg/dL
  TG: 57.2 mg/dL
  TP: 5.4 g/dL
  gamma-GTP: 0.8 IU/L
[6]
  TERMINAL_BW: 244.7 g
  APTT: 16.4 s
  Bas: 0%
  Eos: 0.8%
  Fbg: 225.6 mg/dL
  Hb: 13.2 g/dL
  Ht: 39.9%
  Lym: 81%
  MCH: 21.1 pg
  MCHC: 33.1%
  MCV: 63.6 fL
  Mono: 4.4%
  Neu: 13.4%
  PT: 11.3 s
  Plat: 142.3 x10_4/uL
  RBC: 627.2 x10_4/ul
  Ret: 7%
  WBC: 118.8 x10_2/uL
  KIDNEY_L: 1.1 g
  KIDNEY_R: 1.1 g
  KIDNEY_TOTAL: 2.2 g
  LIVER: 11.7 g
  A/G: 1.9
  ALP: 944.4 IU/L
  ALT: 37 IU/L
  AST: 57.8 IU/L
  BUN: 16.8 mg/dL
  CRE: 0.5 mg/dL
  Ca: 11.6 mg/dL
  Cl: 103 meq/L
  DBIL: 0.026 mg/dL
  GLC: 189.8 mg/dL
  IP: 8.3 mg/dL
  K: 4.6 meq/L
  LDH: 98.8 IU/L
  Na: 141.4 meq/L
  PL: 142 mg/dL
  RALB: 3.5 g/dL
  TBIL: 0.4 mg/dL
  TC: 80.8 mg/dL
  TG: 56.8 mg/dL
  TP: 5.4 g/dL
  gamma-GTP: 1.2 IU/L
[7]
  TERMINAL_BW: 293.9 g
  APTT: 16.3 s
  Bas: 0%
  Eos: 1%
  Fbg: 234.8 mg/dL
  Hb: 13.9 g/dL
  Ht: 42%
  Lym: 83.2%
  MCH: 20.8 pg
  MCHC: 33.1%
  MCV: 62.7 fL
  Mono: 4.2%
  Neu: 11.8%
  PT: 11.2 s
  Plat: 140.6 x10_4/uL
  RBC: 670 x10_4/ul
  Ret: 5.6%
  WBC: 139.9 x10_2/uL
  KIDNEY_L: 1.2 g
  KIDNEY_R: 1.2 g
  KIDNEY_TOTAL: 2.4 g
  LIVER: 13.4 g
  A/G: 2.1
  ALP: 849.4 IU/L
  ALT: 35.4 IU/L
  AST: 62.2 IU/L
  BUN: 17.8 mg/dL
  CRE: 0.5 mg/dL
  Ca: 11.4 mg/dL
  Cl: 102.6 meq/L
  DBIL: 0.022 mg/dL
  GLC: 201.8 mg/dL
  IP: 8.2 mg/dL
  K: 4.8 meq/L
  LDH: 101.8 IU/L
  Na: 140 meq/L
  PL: 142.4 mg/dL
  RALB: 3.7 g/dL
  TBIL: 0.5 mg/dL
  TC: 73.6 mg/dL
  TG: 82 mg/dL
  TP: 5.5 g/dL
  gamma-GTP: 1.6 IU/L
[8]
  TERMINAL_BW: 349.6 g
  APTT: 17.3 s
  Bas: 0%
  Eos: 1.2%
  Fbg: 244.2 mg/dL
  Hb: 15.3 g/dL
  Ht: 45.1%
  Lym: 80.8%
  MCH: 19.8 pg
  MCHC: 33.9%
  MCV: 58.3 fL
  Mono: 5%
  Neu: 13.4%
  PT: 11.3 s
  Plat: 141.8 x10_4/uL
  RBC: 772.4 x10_4/ul
  Ret: 2.8%
  WBC: 147.5 x10_2/uL
  KIDNEY_L: 1.3 g
  KIDNEY_R: 1.4 g
  KIDNEY_TOTAL: 2.7 g
  LIVER: 15.4 g
  A/G: 1.8
  ALP: 589.2 IU/L
  ALT: 38.4 IU/L
  AST: 61.8 IU/L
  BUN: 19 mg/dL
  CRE: 0.7 mg/dL
  Ca: 11 mg/dL
  Cl: 103.2 meq/L
  DBIL: 0.036 mg/dL
  GLC: 187.2 mg/dL
  IP: 7.3 mg/dL
  K: 4.8 meq/L
  LDH: 88.4 IU/L
  Na: 140.8 meq/L
  PL: 172.8 mg/dL
  RALB: 3.9 g/dL
  TBIL: 0.3 mg/dL
  TC: 96.8 mg/dL
  TG: 73.6 mg/dL
  TP: 6.1 g/dL
  gamma-GTP: 1.4 IU/L
